Entries after “also recorded” stand apart in the source; their conditions may differ.
Experiments:
Dmpk^480/480 mice = test: RT-PCR splicing rescue in Dmpk480/480 DM1 mouse model (choroid plexus/CNS); type: in vivo; settings: for RT-PCR splicing rescue of Lnf2 exon22: choroid plexus of Dmpk^480/480 mice (N=2), 10 mg/kg, FIG. 8B
Text: (§1) New MPCs, including HM33, are being systematically designed to study bioavailability. […] Systematic modification of current MPCs (See e.g., FIGS. 5A and 5B) is used to assess the contribution of each change to bioavailability with the goal of improving BBB and other organ penetration.
(§2) Short-term Studies: To select excellent candidates for long-term studies, cohorts (N=6) of one-month old age- and gender-matched animals from both muscle (homozygous HSALR/LR or heterozygous HSAXLR) and brain (Dmpk480/480) mouse models are treated. Both transgenic (N=6) and matching wild-type (N=6) mice are treated every two days at 3 different concentrations of lead MPCs (2, 5 and 10 mg/kg) or PBS via IP injection for a period of 1 week. The 48-hour injection schedule and starting concentrations are based upon previous treatment regimens and preliminary pharmacokinetic analysis. However, the schedule or treatments is subject to change depending upon the candidate compound's history and performance in e.g., Steps 1 and 2 of FIG. 1. After 1 week of treatment, mice are tested for health (body weight, body condition score) then sacrificed, and muscle tissue (tibialis anterior, vastus lateralis, liver, kidney & brain) harvested and tested for in vivo changes in molecular (foci, splicing and MBNL1 colocalization) and histopathological features (central nuclei, HSA-based models only). To assess molecular features, frozen muscle samples are tested for: mis-splicing changes (RT-PCR and RNAseq); transgene and endogenous DMPK expression (qRT-PCR); off-target effects (RNAseq); RNA foci (FISH); MBNL1 colocalization (FISH/IF); CLCN1 staining (IF); and central nuclei (H&E). Frozen muscle and brain samples from each mouse model are analyzed by UPLC-MS/MS to determine preliminary bioavailability, which is correlated with molecular activity (muscle only for HSA-based and brain only for DMPK480/480) to assess therapeutic potential.

DM1 fibroblasts = test: RT-PCR analysis of INSR exon 11 mis-splicing in DM1 fibroblasts; type: cell-based, human; settings: FIG. 2B
Protocol: (§3) FIG. 2A presents the chemical structures of furamidine, HM19A and HM19B. […] (ANOVA two-tailed test, *p<0.05 and **p<0.01).
(§4) DM splicing panel analysis: MPCs are evaluated starting with HM19A &19B in control and DM cells using a 5-point dose-response treatment. Data from the characterization of multiple DM1 & DM2 fibroblast supports this splicing panel and the utility of fibroblasts as a screening tool (See FIGS. 7A-E).

DM1 and DM2 cell lines = test: Splicing rescue and toxicity in DM1 and DM2 patient-derived cell lines; type: cell-based, human; settings: DM fibroblasts and myotubes; nanomolar range where stated
Text: Referring to FIG. 1, Step 2, a process flow includes characterizing the best-in-class MPCs for in cellulo activity and therapeutic potential. Rationale and preliminary data: Because of the multisystemic nature of pathogenesis in myotonic dystrophy, it is desirable to evaluate the therapeutic potential of excellent MPCs in multiple DM cellular models as well as in control models in order to best prioritize compounds for in vivo testing. The cellular activity of MPC lead panel is systematically evaluated starting with HM19A & HM19B in 2 independent DM1 and DM2 patient-derived fibroblast lines and 2 independent DM1 myoblast/myotube differentiation models along with age and gender-matched control cell lines. Potential blood brain barrier penetrance is evaluated using the established MDR1-MDCK monolayer assay. This aim will facilitate the informed selection of the top performing compounds in cellular studies for testing in animal models of DM (See e.g., FIG. 1, step 3).
as §4

HSA^LR/LR mice = test: RT-PCR splicing rescue in HSALR/LR DM1 mouse model (muscle); type: in vivo; settings: for rescue of mis-splicing (DM1 splicing) in HSALR mice: HSALR mouse model; for RT-PCR splicing rescue of Atp2a1 exon 22: TA muscle of HSA^LR/LR mice (N=2), 7 days, FIG. 8A
Text: as §1
as §2, with “The” for “Short-term Studies: To select excellent candidates for long-term studies, cohorts (N=6) of one-month old age- and gender-matched animals from both muscle (homozygous HSALR/LR or heterozygous HSAXLR) and brain (Dmpk480/480) mouse models are treated. Both transgenic (N=6) and matching wild-type (N=6) mice are treated every two days at 3 different concentrations of lead MPCs (2, 5 and 10 mg/kg) or PBS via IP injection for a period of 1 week. The”

DM1 fibroblast = test: MTT cell viability in DM1 fibroblast; type: cell-based, human; settings: for MTT cell viability: DM1 fibroblast, low micromolar concentrations, FIG. 2C
Protocol: as §3
Effects on cellular health: To monitor the overall health of cells, treated vs. untreated control and DM patient fibroblast and myoblast/myotube lines are tested across a dose range where one observes a reduction in toxic CUG/CCUG RNA levels and rescue of mis-splicing. Cell health is monitored using the lactate dehydrogenase (LDH) and methylthiazol tetrazolium (MTT) assays, to measure membrane integrity (cell death) and metabolic activity (cell viability), along with monitoring rates of cell growth. Mutagenicity is assessed using the Ames test. Alterations in cell death, cell viability and rates of cell growth and mutagenicity is combined with data from control cells to determine the overall effect on cell health due to MPC treatment. As shown in FIGS. 2A-2E, HM19B rescues splicing at more than 50-fold lower concentrations than at concentrations where cell death is starting to be observed.

DM2 fibroblasts = test: RT-PCR analysis of INSR exon 11 mis-splicing in DM2 fibroblasts; type: cell-based, human; settings: FIG. 2B
Protocol: as §3, §4

DM1 myoblasts = test: RT-PCR analysis of mis-splicing events in DM1 myoblasts; type: cell-based, human; settings: nanomolar concentrations, FIG. 2D
Text: as §3

CUG repeat RNA = test: Circular dichroism (CD) spectroscopy with CUG repeat RNA; type: binding
patient-derived myotubes = test: DM1 splicing rescue in patient-derived myotubes; type: cell-based, human

## N=C(N)c1ccc(-c2ccc(-c3ccc(C(=N)N)cn3)o2)nc1 [DB829, reference compound]
Dmpk^480/480 mice
  RT-PCR splicing rescue of Lnf2 exon22: splicing rescue

## c1ccc2[nH]c(-c3ccc(-c4ccc(-c5ccc(-c6nc7ccccc7[nH]6)cc5)o4)cc3)nc2c1 [HM19A]
DM1 fibroblasts
  rescue of INSR exon 11 mis-splicing: strong rescue
DM1 and DM2 cell lines
  splicing rescue in patient-derived cell lines: significantly rescuing mis-splicing
HSA^LR/LR mice
  rescue of mis-splicing (DM1 splicing) in HSALR mice: significantly rescuing mis-splicing
  RT-PCR splicing rescue of Atp2a1 exon 22: splicing rescue
DM1 fibroblast
  MTT cell viability: no effect on viability
DM2 fibroblasts
  rescue of INSR exon 11 mis-splicing: strong rescue

## CN1CCN(c2ccc3nc(-c4ccc(-c5ccc6c(c5)oc5cc(-c7ccc(-c8nc9ccc(N%10CCN(C)CC%10)cc9[nH]8)cc7)ccc56)cc4)[nH]c3c2)CC1 [HM19B]
DM1 fibroblasts
  rescue of INSR exon 11 mis-splicing: strong rescue
DM1 myoblasts
  rescue of MBNL1 exon 5 mis-splicing: promising rescue
  rescue of MBNL2 exon 5 mis-splicing: promising rescue
DM1 and DM2 cell lines
  splicing rescue in patient-derived cell lines: splicing rescue at the nanomolar concentration; also recorded: significantly rescuing mis-splicing
HSA^LR/LR mice
  rescue of mis-splicing (DM1 splicing) in HSALR mice: significantly rescuing mis-splicing
  RT-PCR splicing rescue of Atp2a1 exon 22: splicing rescue
DM1 fibroblast
  MTT cell viability: no effect on viability
DM1 fibroblast; FIGS. 2A-2E
  concentration margin between splicing rescue and concentrations where cell death is starting to be observed: more than 50 fold
CUG repeat RNA
  interaction with CUG repeat RNA by CD spectroscopy: surface interaction between ligand and substrate
Dmpk^480/480 mice; Dmpk^480/480 mice, FIG. 8C
  rescue in the CNS compared to DB829: reduced rescue
Dmpk^480/480 mice
  RT-PCR splicing rescue of Lnf2 exon22: splicing rescue
Dmpk^480/480 mice; early preliminary data
  rescue in the Dmpk480/480 mice: capable of rescue
DM2 fibroblasts
  rescue of INSR exon 11 mis-splicing: strong rescue

## COc1cc2c(c(OC)c1OC)-c1ccc(OC)c(=O)cc1[C@@H](NC(C)=O)CC2 [colchicine]
patient-derived myotubes
  rescue of DM1 splicing: rescue DM1 splicing
